# Laboratory results taken from PMC10108821, “Three tyrosine kinase inhibitors cause cardiotoxicity by inducing endoplasmic reticulum stress and inflammation in cardiomyocytes” (BMC Medicine, 2023).
# How the values were obtained:
# Cor.4U hiPSC-CMs [1] = assay: ATP level (CellTiter-Glo) in hiPSC-CMs; type: cell-based, human
# Description: ATP content was measured using the CellTiter-Glo Luminescent Cell Viability Assay (Promega) following the manufacturer’s protocol. After adding CellTiter-Glo reagents and incubation, luminescence was quantified using a Synergy H1 plate reader (BioTek Instruments). ATP standards were prepared from 0.01 to 5 μM. For each drug, we fitted a four-parameter log-logistic model to calculate ED50 at day 5 (Fig S1). To rank the cellular toxicity of the eight TKIs (Fig 1T), we calculated (EC50-Cmax)/(EC50+Cmax) and arranged from the smallest to the biggest for increasing cellular toxicity.
# HELP hiPSC-CMs = assay: CardioExcyte 96 microelectrode array: base impedance and extracellular field potential; type: cell-based, human; conditions: fixed doses: 10 µM, crizotinib and ponatinib 3.16 µM; up to 24 h
# Description: HELP hiPSC-CMs were seeded evenly into the 96-well microelectrode array, NSP-96 0.6mm sensor plate (Nanion technologies), at 50,000 cells per well. Measurements were started after 3-5 days of culture of these cells and until the impedance and the extracellular field potential are stable. Measurements were taken a few times before drug addition, and every 30~60 minutes after the drugs were added at 2x concentration. Values were averaged from 3 wells per group. Beat rate, amplitude of impedance, base impedance and FPDc were calculated by the Cardio Excyte Control 96 software package (Nanion Technologies).
# NRCMs [2] = assay: Seahorse assay: oxygen consumption and extracellular acidification; type: cell-based, rat; conditions: 24 h; fixed doses: 10 µM, crizotinib and ponatinib 3.16 µM
# Description: (§1) Rats were euthanized by decapitation and thoracic cavity was opened with scissors and hearts were popped out of the opening gently with fingers. Hearts were clipped and put in HBSS immediately; 20–40 hearts were collected into one sterile vial containing a magnetic stir bar and 1 mL digestive media made of 0.1% trypsin (Macklin) and 0.05% collagenase (Gibco) in HBSS. Hearts were minced until they were uniform in size. Digestive media was added to 10 mL for 40 hearts and stirred gently for 6 min. Supernatant was discarded and the digestion was repeated once; 10 mL digestive media was added and stirred gently for 10 min. The supernatant with cells were collected and the digestion and collection were repeated 4 times. Cells were centrifuged at 1200 rpm for 5 min, resuspended in media (Dulbecco’s modified Eagleʼs medium (Gibco)) with 10% fetal bovine serum (FBS; VISTECH), 1% penicillin–streptomycin, and 1% 0.1 M 5-bromo-2-deoxyuridine solution (Shanghai Yuanye) and filtered through a 40-μm cell strainer. Cells were seeded on a 100-mm plastic dish and cultured in a 5% CO2 incubator at 37 °C for 2 h to allow non-myocytes to adhere to the plate. The dish was swirled and media gently pipetted up and down to detach lightly attached cardiomyocytes. The collected myocytes were seeded in the same media described before; 48 h after plating, medium was exchanged to fresh DMEM (Gibco) with or without 2% FBS. All drug treatments were performed after this media change.
# NRCMs were seeded evenly into the Seahorse XF96 cell culture plates (Agilent) and cultured in DMEM high glucose with 2% FBS. About 2 hours before the test, cells were moved to a non-CO2 incubator at 37 ° C and incubated for 1 hour. 1 hour prior to the test, culture media was replaced with the Seahorse Basal DMEM at 37°C (with appropriate concentration of glucose, 4mM L-glutamine, 1 mM sodium pyruvate and 1% penicillin-streptomycin solution) and incubated in a non-CO2 incubator at 37°C for 1 hour. Drugs were prepared at 8x to 10x concentrations with the corresponding seahorse media as in each well and added into ports of Seahorse XF96 cartridge plates which have been hydrated overnight. XFe96 Extracellular Flux Analyzer (Agilent) was used to measure oxygen consumption rate and extracellular acidification rate of cells with different drug treatments.
# NRCMs [3] = assay: Mitochondrial membrane potential by TMRE staining; type: cell-based, rat; conditions: 24 h of treatment
# ER stress genes in NRCMs = assay: qRT-PCR of ER stress genes in NRCMs; type: cell-based, rat
# Description: as §1, with “The collected myocytes were seeded in the same media described before; 48 h after plating, medium was exchanged to fresh DMEM (Gibco) with or without 2% FBS.” left out
# RNA was isolated based on a standard protocol using TRIzol reagent (Vazyme). TRIzol (1ml per 1 well of a 6-well plate) was used to lyse cells and chloroform was added for RNA separation. Samples were shaked vigorously by hand for 15 seconds and incubated at room temperature for 2-3 minutes. RNA was present in the aqueous phase after centrifuge at 12000 x g for 15 minutes. Isopropyl alcohol was mixed to precipitate RNA from the aqueous phase. […] 1 μg total RNA was used for cDNA synthesis using a reverse transcription kit (Bioman). We then measured expression of genes of interest with SYBRR Green qPCR Mix (Bioman) using Applied Biosystems 7500 Quantitative PCR Instrument. Gene expression was normalized to the 18S ribosomal RNA expression and primers were listed in Primers Table.
# [4] = test system: Phospho-eIF2α, XBP1s, ATF6 (cleaved); assay: Western blot of ER stress effectors in NRCMs; type: cell-based, rat
# rat left ventricles = assay: Rat gavage cardiotoxicity model: qRT-PCR in left ventricles; type: in vivo
# NRCMs [5] = assay: Calcium staining with Calbryte 520 AM; type: cell-based, rat; conditions: 0.5 and 1 h; 10 µM afatinib, 10 µM sorafenib, 5.62 µM ponatinib
# NRCMs [6] = test system: NRCMs
# Description: After treatment, cells were stained with 5 μg/mL Propidium iodide (Sigma-Aldrich) mixed with Hoechst33342 (Solarbio) in Phenol red-free DMEM (Procell) in a 5% CO2 incubator at 37°C for 30 minutes. Images of PI staining were acquired through the filter Ex/Em=555/624nm and of the nuclei staining through the filter Ex/Em=405/452 using ImageXpress Micro Confocal-AWES (Molecular Devices).
# patients = conditions: cited from earlier work
# Cor.4U hiPSC-CMs [7] = assay: 3'DGE-UMI RNAseq transcriptome of hiPSC-CMs
# Sprague-Dawley rats = assay: Rat gavage cardiotoxicity model: survival, heart and body weight
# [8] = FDA adverse event reporting system (FAERS) analysis, reporting odds ratios; conditions: July 2014 to December 2020
# NRCMs [9] = assay: qRT-PCR of fetal, pro-inflammatory and ER stress genes with pathway-selective inhibitors; type: cell-based, rat; conditions: 24 h
# Description: as §1
# (§2) RNA was isolated based on a standard protocol using TRIzol reagent (Vazyme). TRIzol (1ml per 1 well of a 6-well plate) was used to lyse cells and chloroform was added for RNA separation. Samples were shaked vigorously by hand for 15 seconds and incubated at room temperature for 2-3 minutes. RNA was present in the aqueous phase after centrifuge at 12000 x g for 15 minutes. Isopropyl alcohol was mixed to precipitate RNA from the aqueous phase. RNA precipitations were washed with 75% ethanol once and re-dissolved in RNase-free water. 1 μg total RNA was used for cDNA synthesis using a reverse transcription kit (Bioman). We then measured expression of genes of interest with SYBRR Green qPCR Mix (Bioman) using Applied Biosystems 7500 Quantitative PCR Instrument. Gene expression was normalized to the 18S ribosomal RNA expression and primers were listed in Primers Table.
# H9C2 cell line = assay: qRT-PCR of inflammatory genes in H9C2 cells; type: cell-based, rat; conditions: ISRIB 200 nM or salubrinal 20 μM with 3 TKIs, 24-hr
# Description: as §2
# H9C2 cells were a gift from Dr. Rong Qi in Peking University Health Science Center (they were originally purchased from the Cell Bank/Stem cell bank, Chinese Academy of Science). […] Media was changed to DMEM (Gibco) containing 2% FBS 12 hours before treatment. All treatments were performed under DMEM containing 2% FBS.
# [10] = high PC1 loadings, ponatinib at high dose
smiles,measurement,setting,value
Cc1ccc(C(=O)Nc2ccc(CN3CCN(C)CC3)c(C(F)(F)F)c2)cc1C#Cc1cnc2cccnn12 [ponatinib],effect on ATP levels,"Cor.4U hiPSC-CMs [1]; 0.32 to 10 µM, day 1 to day 5",dose-dependent and time-dependent reduction in ATP levels
same,dose-dependent toxicity (ATP fold changes),"Cor.4U hiPSC-CMs [1]; day 1, different doses, RNAseq conditions",dose-dependent toxicity
same,"effect on beat rate, contraction, base impedance and corrected field potential duration",HELP hiPSC-CMs,reduced beat rate and corrected field potential duration
same,basal oxygen consumption rate (OCR),NRCMs [2],trend of inhibiting basal oxygen consumption rate (OCR)
same,"maximal, spare and non-mitochondrial oxygen consumption",NRCMs [2],"inhibited maximal, spare, and non-mitochondrial oxygen consumption significantly"
same,mitochondrial membrane potential,NRCMs [3],trend of decreasing mitochondrial membrane potentials
same,expression of Dnajb9,ER stress genes in NRCMs; 24 h,most robust upregulation of Dnajb9 among the 3 TKIs
same,expression of Herpud1,ER stress genes in NRCMs; 24 h,most induced
same,"temporal activation of ER stress genes, 72 versus 24 h","ER stress genes in NRCMs; afatinib 5.62 µM, sorafenib 3.16 μM, ponatinib 1.78 μM","the ATF4 and the ATF6 axes, but not XBP1s, showed time-dependent upregulation"
same,relative activation of the three UPR branches,"ER stress genes in NRCMs; high-dose treatment, 24 h",induced activation of three axes to similar degrees
same,duration of activated eIF2α phosphorylation,[4],24 h
same,Dnajb9 expression,"rat left ventricles; day 7, 15 mg/kg",significantly increased
same,gene expression of Anp,"rat left ventricles; ponatinib 15 mg/kg, sorafenib 50 mg/kg gavage, 3 or 7 days",significant increase
same,cytosolic calcium concentration,NRCMs [5],did not cause any significant changes in calcium concentration
same,cell death,"NRCMs [6]; 24-h treatment, 10 µM afatinib, 10 µM sorafenib, 5.62 µM ponatinib",very little cell death
same,incidence of arterial occlusion events,patients,26%
same,level of cardiotoxicity based on literature reports,"patients; ref Table S1, 2, 4, 26–36",high-levels of cardiotoxicity
same,"expression of tRNA aminoacylation gene markers (SARS, GARS)",Cor.4U hiPSC-CMs [7]; Cluster 3,increased
same,expression of genes associated with heart contraction,"Cor.4U hiPSC-CMs [7]; Cluster 4, day 3 or day 5",upregulated
same,"expression of genes associated with ER stress (ATF4, NUPR1, DDIT3, TRIB3, CHAC1, SESN2, HERPUD1)",Cor.4U hiPSC-CMs [7]; [10],upregulated
same,"expression of genes related to cardiomyopathy and sarcomeric structure (MYH7, SYNPO2L, LDB3, ACTN2, MYLK3)",Cor.4U hiPSC-CMs [7]; [10],downregulated
same,death of animals,"Sprague-Dawley rats; 15 mg/kg gavage once daily, 3 or 7 days",one rat died
same,heart or body weight,"Sprague-Dawley rats; day 7, ponatinib 15 mg/kg, sorafenib 50 mg/kg gavage once daily",decreased
same,"cardiotoxicity events in FAERS, reporting odds ratios (RORs)",[8],caused the most cardiotoxicity with significant reporting odds ratios (RORs)
O=C(COc1ccc(Cl)cc1)NC1CCC(NC(=O)COc2ccc(Cl)cc2)CC1 (centres unmarked) [ISRIB],rescue from cell death induced by sorafenib,"NRCMs [6]; ISRIB 200 nM or 4μ8c 10 μM with 10 µM sorafenib, 24-hr",had no such effect
same,"expression of Txnip, Il1b, Tnf, Nfkb1 and Il6 induced by TKIs",NRCMs [9]; ISRIB 200 nM co-treatment,"inhibited the expression of Txnip, Il1b, and Tnf to similar degrees as 4μ8c, but did not hamper the expression of Nfkb1 and Il6 as potently as 4μ8c in combination with ponatinib"
same,expression of cardiac fetal genes induced by TKIs,NRCMs [9]; ISRIB 200 nM co-treatment,inhibited the expression of cardiac fetal genes to a similar level as 4μ8c
same,"effect on Atf4, Ddit3, Xbp1s and Dnajb9 expression induced by TKIs",NRCMs [9]; ISRIB 200 nM or 4μ8c 10 μM with TKIs,inhibited Atf4 and Ddit3 significantly without affecting the XBP1s axis too much
same,expression of inflammatory genes induced by TKIs,H9C2 cell line,"blocked upregulation of inflammatory genes (Nfkb1, Il6. and Tnf) by TKIs"
